# According to patent US12692249B2, “WDR5 inhibitors and modulators” (Vanderbilt University, priority 2019, dated 2026):
# Experiments:
# [1] = target: WDR5 (Homo sapiens, UniProt P61964); assay: TR-FRET competition binding assay, displacement of 10mer-Thr-FAM MLL peptide probe from His-tagged WDR5; settings: WDR5-His tag (residues 24-334) 2 nM; 10mer-Thr-FAM 150 nM; 60 min, room temperature; read-out: Ki for Inhibition of WDR5 by TR-FRET assay
# Experimental: Time Resolved-Fluorescence Energy Transfer Competition Assay […] Excess 10mer-Thr-FAM probe was utilized with His-tagged WDR5 in conjunction with a commercial anti-His antibody containing a Terbium label. The LanthaScreenTM Elite Tb-anti-HIS Antibody from ThermoFisher Scientific was used for this purpose. […] The 10mer-Thr-FAM probe when bound to WDR5 will undergo a FRET interaction with the Tb-anti-HIS and emit at 520 nm. […] WDR[…] 10[…] used at 150 nM. […] A source plate is prepared using an Echo Liquid Handler, which distributes the compounds to the assay plate (white, flat-bottom; OptiPlate) in a 10-point, 5-fold dilution schemes with a top concentration of 5 μM, in a final volume of 20 μL. […] The final DMSO concentration in each well of the assay plate is 1% or lower. The plate is covered, shielded from light, and incubated for 60 minutes at room temperature with rocking. 10mer-Thr-FAM and Anti-His terbium antibody fluorescence is then measured on a Biotek Cytation 3 at excitation wavelength of 340 nm, and emission wavelengths of 495 nm and 520 nm. […] TR-FRET signal is plotted and IC50 and Ki values are calculated according to the formula of Wang Z. FEBS Lett (1996) 3, 245. Ki=[I]50/([L]50/Kd+[P]0/Kd+1) where [I]50 is the concentration of the free inhibitor at 50% inhibition, [L]50 is the concentration of the free labeled ligand at 50% inhibition, [P]0 is the concentration of the free protein at 0% inhibition, Kd represents the dissociation constant of the FITC-MLL or 10mer-Thr-FAM probe for WDR5. Total fluorescence is also measured, to rule out compounds that are inherently fluorescent or able to act as quenchers in the assay. TR-FRET Binding Assay
# [2] = tested on: MV4:11 human cancer cell lines; assay: Cellular viability / anti-proliferative assay, CellTiter-Glo, 5 day protocol; format: cell-based; settings: Homo sapiens, MV4-11, 120 h, MV4:11 cells; 5 day incubation; CellTiter-Glo; mean of at least two replicates; read-out: GI50 on cellular proliferation of MV4:11 human cancer cell lines
# Summary of the method: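 MV-4-11 cells in IMDM with 10% FBS, 200 cells/well, exposed 5 days to 22 two-fold dilutions from 30 μM, final DMSO 0.3%. Viability read by CellTiter-Glo luminescence; GI50 from sigmoidal dose-response fit, mean of at least two replicates.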
SMILES,Ki [1],GI50 [2]
"CCn1cc(-c2cc(Cn3ccnc3)cc3c2CCN(c2cncc4ccc(C)cc24)C3=O)c(C(F)(F)F)n1 [Example 54, 7-((1H-Imidazol-1-yl)methyl)-5-(1-ethyl-3-(trifluoromethyl)-1H-pyrazol-4-yl)-6′-methyl-3,4-dihydro-1H-[2,4′-biisoquinolin]-1-one]",0.028 nM,71 nM
"Cc1ccc2cncc(N3CCc4c(cc(Cc5ncc[nH]5)cc4-c4cn(C)nc4C(F)(F)F)C3=O)c2c1 [Example 56, 7-((1H-Imidazol-2-yl)methyl)-6′-methyl-5-(1-methyl-3-(trifluoromethyl)-1H-pyrazol-4-yl)-3,4-dihydro-1H-[2,4′-biisoquinolin]-1-one]",0.031 nM,97 nM
"Cc1ccc2cncc(N3CCc4c(cc(C(O)c5cn(C)cn5)cc4-c4cn(C)nc4C(F)(F)F)C3=O)c2c1 (stereo not shown) [Example 57, 7-(Hydroxy(1-methyl-1H-imidazol-4-yl)methyl)-6′-methyl-5-(1-methyl-3-(trifluoromethyl)-1H-pyrazol-4-yl)-3,4-dihydro-1H-[2,4′-biisoquinolin]-1-one]",27 nM,29000 nM
"Cc1ccc2cncc(N3CCc4c(cc(Cc5ccncc5)cc4-c4cn(C)nc4C(F)(F)F)C3=O)c2c1 [Example 59, 6′-Methyl-5-(1-methyl-3-(trifluoromethyl)-1H-pyrazol-4-yl)-7-(pyridin-4-ylmethyl)-3,4-dihydro-1H-[2,4′-biisoquinolin]-1-one]",1.4 nM,4380 nM
"Cc1nccn1Cc1cc2c(c(-c3cn(C)nc3C(F)(F)F)c1)CCN(C1CCOc3ccc(Br)cc31)C2=O (stereo not shown) [Example 61, 2-(6-Bromochroman-4-yl)-7-((2-methyl-1H-imidazol-1-yl)methyl)-5-(1-methyl-3-(trifluoromethyl)-1H-pyrazol-4-yl)-3,4-dihydroisoquinolin-1(2H)-one]",0.052 nM,31 nM
"Cc1ccc2c(c1)C(N1CCc3c(cc(Cn4ccnc4C)cc3-c3cn(C)nc3C(F)(F)F)C1=O)CCO2 (stereo not shown) [Example 62, 7-((2-Methyl-1H-imidazol-1-yl)methyl)-5-(1-methyl-3-(trifluoromethyl)-1H-pyrazol-4-yl)-2-(6-methylchroman-4-yl)-3,4-dihydroisoquinolin-1(2H)-one]",0.028 nM,25 nM
"Cc1nccn1Cc1cc2c(c(-c3cn(C)nc3C(F)(F)F)c1)CCN(C1CCOc3ccc(C4CC4)cc31)C2=O (stereo not shown) [Example 63, 2-(6-Cyclopropylchroman-4-yl)-7-((2-methyl-1H-imidazol-1-yl)methyl)-5-(1-methyl-3-(trifluoromethyl)-1H-pyrazol-4-yl)-3,4-dihydroisoquinolin-1(2H)-one]",0.068 nM,87 nM

# Compounds with a lower Ki [1], results first:
Ki [1],GI50 [2],SMILES
< 0.02 nM,59 nM,"CCn1cc(-c2cc(Cn3ccnc3)cc3c2CCN(c2cc(C)nc4ccc(OC)cc24)C3=O)c(C(F)(F)F)n1 [Example 53, 7-((1H-Imidazol-1-yl)methyl)-5-(1-ethyl-3-(trifluoromethyl)-1H-pyrazol-4-yl)-2-(6-methoxy-2-methylquinolin-4-yl)-3,4-dihydroisoquinolin-1(2H)-one]"
< 0.02 nM,59 nM,"Cc1ccc2cncc(N3CCc4c(cc(Cc5cnc[nH]5)cc4-c4cn(C)nc4C(F)(F)F)C3=O)c2c1 [Example 55, 7-((1H-imidazol-5-yl)methyl)-6′-methyl-5-(1-methyl-3-(trifluoromethyl)-1H-pyrazol-4-yl)-3,4-dihydro-1H-[2,4′-biisoquinolin]-1-one]"
0.025 nM,191 nM,"Cc1ccc2cncc(N3CCc4c(cc(Cc5cn(C)cn5)cc4-c4cn(C)nc4C(F)(F)F)C3=O)c2c1 [Example 58, 6′-Methyl-7-((1-methyl-1H-imidazol-4-yl)methyl)-5-(1-methyl-3-(trifluoromethyl)-1H-pyrazol-4-yl)-3,4-dihydro-1H-[2,4′-biisoquinolin]-1-one]"
0.023 nM,38 nM,Cc1nccn1Cc1cc2c(c(-c3cn(C)nc3C(F)(F)F)c1)CCN(C1CCCc3ccc(Br)cc31)C2=O (stereo not shown) [Example 60]
